Data reported in patent US4715994A, “Novel antibacterial agents and potentiators of carbapenem antibiotics” (Merck & Co., Inc., priority 1986, dated 1987).
Read-outs that look alike come from different tables or passages of the source.

Biological target: T1, dehydropeptidase-I (renal dipeptidase, EC 3.4.13.11) (Sus scrofa, UniProt P22412)
T1 construct: isolated from hog kidneys; from tissue; host or cells: hog kidney, solubilized and lyophilized enzyme preparation
T1 sequence (P22412 17-409): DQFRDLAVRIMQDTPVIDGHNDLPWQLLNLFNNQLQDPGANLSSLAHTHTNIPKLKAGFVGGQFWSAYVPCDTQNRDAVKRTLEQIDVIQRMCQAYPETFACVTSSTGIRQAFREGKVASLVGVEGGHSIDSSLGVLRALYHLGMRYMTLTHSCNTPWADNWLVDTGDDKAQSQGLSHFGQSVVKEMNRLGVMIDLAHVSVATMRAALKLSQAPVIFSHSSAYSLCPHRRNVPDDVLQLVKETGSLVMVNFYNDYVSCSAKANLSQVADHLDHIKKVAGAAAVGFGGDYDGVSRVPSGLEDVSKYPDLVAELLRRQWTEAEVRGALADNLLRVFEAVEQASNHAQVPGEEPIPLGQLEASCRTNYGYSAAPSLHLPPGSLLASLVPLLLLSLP
Experiment: Renal dehydropeptidase I inhibition (hydrolysis of glycyldehydrophenylalanine)
Assay type: biochemical, hog
Description: This measured the ability of compounds to inhibit hydrolysis of glycyldehydrophenylalanine (GDP) by a solubilized preparation of […] isolated from hog kidneys. The procedure is as follows: to a 1 ml system containing 50 mM "MOPS" (3-(N-morpholino)propanesulfonic acid) buffer, pH 7.1, is added 5 μg of lyophilized enzyme, and the test compound at a final concentration of 0.1 mM. After a five minute incubation at 37° C., GDP is added to a final concentration of 0.05 mM. […] Inhibition of the enzyme is gauged by comparison to a standard run containing no inhibitor and is expressed as the inhibitor binding constant, Ki.

[1] = read-out: RENAL DEHYDROPEPTIDASE I INHIBITION Ki

| Ki [1] | Structure (SMILES) | Ki |
| --- | --- | --- |
| 7 nM | CC(N)P(=O)(O)C/C(=C/CCc1ccccc1)C(=O)O (stereo not drawn) [DL, R5 phenethyl, E] |  |
|  | C=C(CP(=O)(O)[C@H](C)N)C(=O)O [L, R5 H] | 27 nM |
|  | CC(CP(=O)(O)C(C)N)C(=O)O (stereo not drawn) [DL, R2 methyl, R3 H, 1-Aminoethyl-(2-carboxy-1-propyl)phosphinic acid] | 10 nM |
|  | CC(CP(=O)(O)[C@@H](C)N)C(=O)O (stereo partly drawn) [D, R2 methyl, R3 H, 1-D-Aminoethyl-(2-carboxy-1-propyl)phosphinic acid] | 140 nM |
| 12 nM | CC(N)P(=O)(O)CC(CCCc1ccncc1)C(=O)O (stereo not drawn) [DL, R2 4-pyridylpropyl, 1-Aminoethyl-[2-carboxy-5-(4-pyridyl)-1-n-pentyl]-phosphinic acid] |  |
|  | C[C@H](N)P(=O)(O)CC(CCCc1ccccc1)C(=O)O (some centres unmarked) [L, R2 phenylpropyl] | 27 nM |
| 16 nM | CC(N)P(=O)(O)C/C(=C\CCc1ccccc1)C(=O)O (stereo not drawn) [DL, R5 phenethyl, Z, 1-Aminoethyl-(2-carboxy-5-phenyloct-2-enyl)phosphinic acid (E and Z isomers)] |  |
|  | C=C(CP(=O)(O)[C@@H](C)N)C(=O)O [D, R5 H] | 230 nM |
| 5.8 nM | CCCCCC=C(CP(=O)(O)C(C)N)C(=O)O (racemic) [DL, R5 n-pentyl, (E, Z isomers), 1-Aminoethyl-(2-carboxy-oct-2-enyl)phosphinic acid (E/Z mixture)] |  |
|  | CC(CP(=O)(O)[C@H](C)N)C(=O)O (stereo partly drawn) [L, R2 methyl, 1-L-Aminoethyl-(2-carboxy-1-propyl)phosphinic acid] | 10 nM |

| Structure (SMILES) | Ki [1] | Ki |
| --- | --- | --- |
| C[C@@H](N)P(=O)(O)CC(CCCc1ccccc1)C(=O)O (some centres unmarked) [D, R2 phenylpropyl] | 1000 nM |  |
